Reference: US9045551B2, “Anti-DLL4/VEGF dual variable domain immunoglobulin and uses thereof” (AbbVie Inc., priority 2012, dated 2015)
Marks after values point to notes of the source that are not given here. Each block holds one molecule with its values, some of them ahead of it.

Assays:
[1] = test system: U87-MG human glioblastoma xenograft tumors; assay: U87-MG glioblastoma xenograft, combination with Temozolomide (Example 6); assay type: in vivo, female SCID mice; settings: 5 mg/kg IP
Description: The effect of anti-DLL4/anti-VEGF DVDs in combination with chemotherapy on tumor growth was evaluated on U87-MG human glioblastoma xenograft tumors in female SCID mice. Briefly, 3×10^6 cells were inoculated subcutaneously into the right hind flank. Tumors were allowed to establish for 22 days, at which point tumor volume was determined using electronic caliper measurements using the formula: L×W^2/2. Mice were allocated into treatment groups (n=10 per group) so that each cohort had equivalent mean tumor volume of 207 mm^3 prior to initiation of therapy. Animals were dosed intraperitoneally with a single dose of Temozolomide® and/or four weekly doses of anti-DLL4/anti-VEGF DVD, with tumor volume measured twice a week for the duration of the experiment.

[2] = test system: U87-MG human glioblastoma xenograft tumors; assay: U87-MG glioblastoma xenograft, combination with temozolomide (Example 11); assay type: in vivo, female SCID mice; settings: 5 mg/kg IP, qdX1
Description: (§1) The effect of anti-DLL4-VEGF DVD-Igs in combination with chemotherapy on tumor growth was evaluated on U87-MG human glioblastoma xenograft tumors in female SCID mice. Briefly, 3×10^6 cells were inoculated subcutaneously into the right hind flank. Tumors were allowed to establish for 13 days, at which point tumor volume was determined using electronic caliper measurements using the formula: L×W^2/2. Mice were allocated into treatment groups (n=10 per group) so that each cohort had equivalent mean tumor volume of 207 mm^3 prior to initiation of therapy. Animals were dosed with temozolomide, anti-VEGF mAb, and/or anti-DLL4-VEGF DVD-Ig at the dose and schedule in Table 30. Tumor volume was measured twice a week for the duration of the experiment.

[3] = test system: PA0123 patient-derived human pancreatic xenograft tumors; assay: PA0123 patient-derived pancreatic xenograft, combination with gemcitabine; assay type: in vivo, female NSG mice; settings: 100 mg/kg IP, [q3dX4]X2
Description: The effect of anti-DLL4-VEGF DVD-Igs in combination with chemotherapy on tumor growth was evaluated on PA0123 patient-derived human pancreatic xenograft tumors in female NSG mice. Briefly, frozen tumor fragments were implanted subcutaneously into the right hind flank. Tumors were allowed to establish for 28 days, at which point tumor volume was determined using electronic caliper measurements using the formula: L×W^2/2. Mice were allocated into treatment groups (n=7 per group) so that each cohort had equivalent mean tumor volume of 193 mm^3 prior to initiation of therapy. Animals were dosed with gemcitabine and/or anti-DLL4-VEGF DVD-Ig, at the dose and schedule in Table 31. Tumor volume was measured twice a week for the duration of the experiment.

[4] = test system: HT-29 human colon xenograft tumors; assay: HT-29 colon xenograft, combination with irinotecan; assay type: in vivo, female SCID mice; settings: 60 mg/kg IP, q3dX4
Description: The effect of anti-DLL4-VEGF DVD-Igs in combination with chemotherapy on tumor growth was evaluated on HT-29 human colon xenograft tumors in female SCID mice. Briefly, 2×10^6 cells were inoculated subcutaneously into the right hind flank. Tumors were allowed to establish for 25 days, at which point tumor volume was determined using electronic caliper measurements using the formula: L×W^2/2. Mice were allocated into treatment groups (n=10 per group) so that each cohort had equivalent mean tumor volume of 209 mm^3 prior to initiation of therapy. Animals were dosed with irinotecan and/or anti-DLL4-VEGF DVD-Ig, at the dose and schedule in Table 29. Tumor volume was measured twice a week for the duration of the experiment.

[5] = test system: SW-48 human colon xenograft tumors; assay: SW-48 colon xenograft, combination with irinotecan; assay type: in vivo, female SCID mice; settings: 60 mg/kg IP, q3dX4
Description: as §1, with “SW-48” for “U87-MG”, “colon” for “glioblastoma”, “5×10^6” for “3×10^6”, “211” for “207”, “irinotecan,” for “temozolomide,”, “27.” for “30.”

[6] = test system: MDA-MB-231-luc human breast xenograft tumors; assay: MDA-MB-231-luc breast xenograft, combination with paclitaxel; assay type: in vivo, female SCID mice; settings: 25 mg/kg IP, q4dX3
Description: The effect of anti-DLL4-VEGF DVD-Igs in combination with chemotherapy on tumor growth was evaluated on MDA-MB-231-luc human breast xenograft tumors in female SCID mice. Briefly, 2×10^6 cells were implanted in the mammary fat pad. Tumors were allowed to establish for 13 days, at which point tumor volume was determined using electronic caliper measurements using the formula: L×W^2/2. Mice were allocated into treatment groups (n=10 per group) so that each cohort had equivalent mean tumor volume of 150 mm^3 prior to initiation of therapy. Animals were dosed with paclitaxel and/or anti-DLL4-VEGF DVD-Ig, at the dose and schedule in Table 32. Tumor volume was measured twice a week for the duration of the experiment. Additionally, bioluminescent images were acquired to monitor and track spontaneous metastasis of cancer cell to the lung and/or lymph nodes Results are shown in Table 32.

[7] = test system: SUM149PT human breast xenograft tumors; assay: SUM149PT breast xenograft, combination with paclitaxel (Table 33); assay type: in vivo, female SCID mice; settings: 25 mg/kg IP, [q4dX3]X4
Description: (§2) The effect of anti-DLL4-VEGF DVD-Igs in combination with chemotherapy on tumor growth was evaluated on SUM149PT human breast xenograft tumors in female SCID mice. Briefly, 1×10^6 cells were inoculated subcutaneously into the right hind flank. Tumors were allowed to establish for 28 days, at which point tumor volume was determined using electronic caliper measurements using the formula: L×W^2/2. Mice were allocated into treatment groups (n=9 per group) so that each cohort had equivalent mean tumor volume of 183 mm^3 prior to initiation of therapy. Animals were dosed with paclitaxel and/or anti-DLL4-VEGF DVD-Ig, at the dose and schedule in Table 33. Tumor volume was measured twice a week for the duration of the experiment.

[8] = test system: SUM149PT human breast xenograft tumors; assay: SUM149PT breast xenograft, combination with paclitaxel and anti-VEGF mAb (Table 34); assay type: in vivo, female SCID mice; settings: 25 mg/kg IP, [q4dX3]X4; day 18 post size match
Description: as §2, with “25” for “28”, “(n=10” for “(n=9”, “228” for “183”, “paclitaxel, anti-VEGF mAb” for “paclitaxel”, “34.” for “33.”

human DLL4529 = target: T1, human DLL4529 (Homo sapiens, UniProt Q9NR61); assay: BIACORE surface plasmon resonance binding kinetics, human DLL4; settings: BIAcore human DLL4529, 25° C.
T1 construct: a purified recombinant DLL4 extracellular domain (ECD)
Description: A BIACORE assay (Biacore, Inc, Piscataway, N.J.) was used to evaluate the binding of DVDs to a purified recombinant DLL4 extracellular domain (ECD) or to VEGF165, as determined by surface plasmon resonance-based measurements made on a Biacore 2000, Biacore 3000 or Biacore T100 (GE Healthcare, Piscataway, N.J.) at 25° C. For DLL4 binding kinetic measurements the assay buffer was HBS-EPB: 10 mM Hepes, pH7.5, 150 mM NaCl, 3 mM EDTA, 0.005% Tween 20, 0.1 mg/ml BSA (Sigma A7906). For VEGF binding kinetic measurements the assay buffer was HBS-EP+(3N01B): 10 mM Hepes, pH7.5, 300 mM NaCl, 3 mM EDTA, 0.05% Tween 20, 0.1 mg/ml BSA (Sigma A7906). For example, approximately 9000 RU of goat anti-human Fc specific polyclonal antibody (Thermo Fisher Scientific Inc., Rockford, Ill.) diluted in 10 mM sodium acetate (pH 4.5) is directly immobilized across a CM5 research grade biosensor chip using a standard amine coupling kit according to manufacturer's instructions and procedures at 25 ug/ml. […] The equilibrium dissociation constant KD (M) of the reaction between antibodies and the target antigen is then calculated from the kinetic rate constants by the following formula: KD=Koff/Kon. Binding is recorded as a function of time and kinetic rate constants are calculated. In this assay, on-rates as fast as 10^6 M^−1s^−1 and off-rates as slow as 10^−6 s^−1 can be measured.

Molecule: Cn1nnc2c(C(N)=O)ncn2c1=O [Temozolomide, reference compound]
% TGI (Percent tumor growth inhibition) ([1]; qdX1, day 19 post size match): 65*** % | % TGD (Percent tumor growth delay) ([1]; qdX1, endpoint of 1000 mm^3): 45*** % | % TGI (Percent tumor growth inhibition) ([2]; day 19 post size match): 65*** % | % TGD (Percent tumor growth delay) ([2]; endpoint of 1000 mm^3): 45*** %

Molecule: Nc1ccn([C@@H]2O[C@H](CO)[C@@H](O)C2(F)F)c(=O)n1 [gemcitabine, reference compound]
% TGI (Percent tumor growth inhibition) ([3]; day 38 post size match): 48** % | % TGD (Percent tumor growth delay) ([3]; endpoint of 1000 mm^3): 43** %

Molecule: CCc1c2c(nc3ccc(OC(=O)N4CCC(N5CCCCC5)CC4)cc13)-c1cc3c(c(=O)n1C2)COC(=O)[C@]3(O)CC [irinotecan, reference compound]
% TGI (Percent tumor growth inhibition) ([4]; day 20 post size match): 47* % | % TGD (Percent tumor growth delay) ([4]; endpoint of 1000 mm^3): 60* % | % TGI (Percent tumor growth inhibition) ([5]; day 18 post size match): 77*** % | % TGD (Percent tumor growth delay) ([5]; endpoint of 1000 mm^3): 106*** %

Molecule: CC(=O)O[C@H]1C(=O)[C@@]2(C)[C@H]([C@H](OC(=O)c3ccccc3)[C@]3(O)C[C@H](OC(=O)[C@H](O)[C@@H](NC(=O)c4ccccc4)c4ccccc4)C(C)=C1C3(C)C)[C@]1(OC(C)=O)CO[C@@H]1C[C@@H]2O [paclitaxel, reference compound]
% met incidence (Percent of animals with detectable signal in the lung and/or lymph nodes) ([6]; bioluminescent imaging, day 22 post size match, treatment control group 100%): 40* % | % TGI (Percent tumor growth inhibition) ([6]; day 15 post size match): 78*** % | % TGD (Percent tumor growth delay) ([6]; endpoint of 1000 mm^3): 106*** % | % TGI (Percent tumor growth inhibition) ([7]; day 22 post size match): 60*** % | % TGD (Percent tumor growth delay) ([7]; endpoint of 1000 mm^3): 173*** % | % TGI (Percent tumor growth inhibition) [8]: 50* %

Koff (human DLL4529): 0.00193 s⁻¹ | Kon (human DLL4529): 160000 M⁻¹ s⁻¹
B1: h1A11.1: humanized anti-DLL4 mAb, parent antibody; VH SEQ ID NO: 39, VL SEQ ID NO: 40 (antibody, V domains shown)
VH: EVQLVESGGGLVQPGGSLRLSCAASGFTFSNFPMAWVRQAPGKGLEWVATISSSDGTTYYRDSVKGRFTISRDNAKNSLYLQMNSLRAEDTAVYYCARGYYNSPFAYWGQGTLVTVSS
VL: DIQMTQSPSSLSASVGDRVTITCRASEDIYSNLAWYQQKPGKAPKLLIYDTNNLADGVPSRFSGSGSGTDFTLTISSLQPEDFATYYCQQYNNYPPTFGQGTKLEIKR
